Measurements: ChEMBL document CHEMBL4177534, “Discovery and evaluation of 1H-pyrrolo[2,3-b]pyridine based selective and reversible small molecule BTK inhibitors for the treatment of rheumatoid arthritis” (Bioorg Med Chem Lett, 2017)
≈ marks a conversion by molar mass, not a printed value.

Key:
[1] = Equilibrium aqueous solubility of the compound at pH 4; type: physicochemical
[2] = Equilibrium aqueous solubility of the compound at pH 7.4; type: physicochemical
[3] = molecular target: Tyrosine-protein kinase JAK3 (Homo sapiens, UniProt P52333); experiment: Inhibition of recombinant human JAK3 (781 to 1124 residues) preincubated for 10 mins followed by poly-[Glu-Tyr(4:1) substrate addition after 60 mins in presence of ATP by Kinase-Glo assay
Chain of Tyrosine-protein kinase JAK3 (P52333 whole entry, the tested form may be a part): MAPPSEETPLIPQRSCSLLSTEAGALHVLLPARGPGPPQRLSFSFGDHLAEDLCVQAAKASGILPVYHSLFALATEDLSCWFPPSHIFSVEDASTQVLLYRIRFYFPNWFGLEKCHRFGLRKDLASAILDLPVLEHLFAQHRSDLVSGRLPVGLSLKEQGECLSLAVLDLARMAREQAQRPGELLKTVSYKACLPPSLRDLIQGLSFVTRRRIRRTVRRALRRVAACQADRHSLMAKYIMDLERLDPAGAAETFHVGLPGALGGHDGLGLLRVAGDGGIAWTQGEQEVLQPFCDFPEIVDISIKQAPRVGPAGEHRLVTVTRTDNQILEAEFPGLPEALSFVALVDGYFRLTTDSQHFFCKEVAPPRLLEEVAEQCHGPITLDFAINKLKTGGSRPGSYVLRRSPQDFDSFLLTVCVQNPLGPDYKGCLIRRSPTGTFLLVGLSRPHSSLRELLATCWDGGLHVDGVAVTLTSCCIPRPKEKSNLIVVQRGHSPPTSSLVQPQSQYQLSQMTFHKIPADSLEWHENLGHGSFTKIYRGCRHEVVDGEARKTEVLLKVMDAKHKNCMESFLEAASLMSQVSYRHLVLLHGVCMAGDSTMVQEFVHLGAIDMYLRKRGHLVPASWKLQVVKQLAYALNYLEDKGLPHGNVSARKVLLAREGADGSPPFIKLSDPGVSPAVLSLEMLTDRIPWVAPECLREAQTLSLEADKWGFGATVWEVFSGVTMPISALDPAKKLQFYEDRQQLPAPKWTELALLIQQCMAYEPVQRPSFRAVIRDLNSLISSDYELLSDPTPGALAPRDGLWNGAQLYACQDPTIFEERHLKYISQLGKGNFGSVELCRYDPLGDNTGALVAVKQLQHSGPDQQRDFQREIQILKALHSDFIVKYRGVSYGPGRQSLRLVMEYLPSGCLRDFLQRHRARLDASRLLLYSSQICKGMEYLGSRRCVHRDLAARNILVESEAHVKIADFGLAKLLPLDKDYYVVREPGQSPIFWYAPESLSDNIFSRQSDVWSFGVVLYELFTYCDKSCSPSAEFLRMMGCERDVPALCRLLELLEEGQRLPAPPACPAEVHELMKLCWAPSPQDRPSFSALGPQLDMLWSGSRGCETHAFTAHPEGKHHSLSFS

[4] = molecular target: Cytoplasmic tyrosine-protein kinase BMX (Homo sapiens, UniProt P51813); experiment: Inhibition of human BMX
[5] = molecular target: Tyrosine-protein kinase BTK (Homo sapiens, UniProt Q06187); experiment: Inhibition of human BTK assessed as decrease in […] antibody stimulated BCR mediated CD69 upregulation in whole blood preincubated for 1 hr followed by antibody challenge after 4 hrs by flow cytometry
[6] = molecular target: Tyrosine-protein kinase BTK (Mus musculus, UniProt P35991); experiment: Inhibition of mouse BTK assessed as decrease in anti-mouse IgD antibody stimulated BCR mediated CD69 upregulation in whole blood preincubated for 1 hr followed by antibody challenge after 4 hrs by flow cytometry
[7] = Half life in mouse at 3 mg/kg, iv; type: ADME, organism-based; conditions: in vivo
[8] = Oral bioavailability in mouse at 10 mg/kg; type: ADME, organism-based; conditions: in vivo
[9] = test system: Mus musculus; experiment: Ex-vivo inhibition of BTK in C57BL/6J mouse assessed as anti-mouse IgD antibody stimulated BCR mediated CD69 level in whole blood isolated from 10 mg/kg, po bid treated mouse measured after 6 hrs post first dose by flow cytometry relative to control; type: functional; set-up: scale not given: the % may be the effect or the level left
[10] = test system: Mus musculus; experiment: Ex-vivo inhibition of BTK in C57BL/6J mouse assessed as anti-mouse IgD antibody stimulated BCR mediated CD69 level in whole blood isolated from 30 mg/kg, po bid treated mouse measured after 6 hrs post first dose by flow cytometry relative to control; type: functional; set-up: scale not given: the % may be the effect or the level left
[11] = test system: Mus musculus; experiment: Antiarthritic activity in DBA/1J mouse type-2 collagen-induced arthritis model assessed as reduction in clinical score immunized with type-2 collagen on day 1 and day 21 followed by LPS challenge on day 28 subsequent compound administration po bid by hematoxylin and eosin staining based assay; type: functional, organism-based
[12] = molecular target: Interleukin-1 receptor-associated kinase 4 (Homo sapiens) (UniProt Q9NWZ3); experiment: Inhibition of recombinant human full length N-terminal GST-tagged IRAK4 expressed in baculovirus infected Sf9 cells assessed as change in enzyme activity at 1 uM in presence of 2 uM ATP relative to control; set-up: scale not given: the % may be the effect or the level left
Chain of Interleukin-1 receptor-associated kinase 4 (Homo sapiens) (Q9NWZ3 whole entry): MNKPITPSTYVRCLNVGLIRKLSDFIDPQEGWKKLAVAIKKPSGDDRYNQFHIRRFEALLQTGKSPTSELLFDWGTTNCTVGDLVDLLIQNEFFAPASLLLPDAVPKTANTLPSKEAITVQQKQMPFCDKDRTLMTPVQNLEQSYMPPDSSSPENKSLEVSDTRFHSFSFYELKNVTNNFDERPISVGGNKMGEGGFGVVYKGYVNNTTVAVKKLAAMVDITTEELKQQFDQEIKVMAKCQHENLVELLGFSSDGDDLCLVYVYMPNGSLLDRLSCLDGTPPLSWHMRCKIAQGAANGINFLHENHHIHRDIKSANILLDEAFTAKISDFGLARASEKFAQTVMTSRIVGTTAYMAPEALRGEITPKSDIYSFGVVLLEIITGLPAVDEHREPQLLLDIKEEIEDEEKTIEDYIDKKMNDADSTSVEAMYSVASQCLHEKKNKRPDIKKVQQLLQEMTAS

[13] = molecular target: Homeodomain-interacting protein kinase 4 (Homo sapiens) (UniProt Q8NE63); experiment: Inhibition of recombinant human full length N-terminal GST-tagged HIPK4 expressed in baculovirus infected Sf9 cells assessed as change in enzyme activity at 1 uM in presence of 2 uM ATP relative to control; set-up: scale not given: the % may be the effect or the level left
[14] = molecular target: TGF-beta receptor type-2 (Homo sapiens) (UniProt P37173); experiment: Inhibition of recombinant N-terminal GST-tagged TGFBR2 (unknown origin) expressed in baculovirus infected Sf9 cells assessed as change in enzyme activity at 1 uM in presence of 1 uM ATP relative to control; set-up: scale not given: the % may be the effect or the level left
Chain of TGF-beta receptor type-2 (Homo sapiens) (P37173 whole entry): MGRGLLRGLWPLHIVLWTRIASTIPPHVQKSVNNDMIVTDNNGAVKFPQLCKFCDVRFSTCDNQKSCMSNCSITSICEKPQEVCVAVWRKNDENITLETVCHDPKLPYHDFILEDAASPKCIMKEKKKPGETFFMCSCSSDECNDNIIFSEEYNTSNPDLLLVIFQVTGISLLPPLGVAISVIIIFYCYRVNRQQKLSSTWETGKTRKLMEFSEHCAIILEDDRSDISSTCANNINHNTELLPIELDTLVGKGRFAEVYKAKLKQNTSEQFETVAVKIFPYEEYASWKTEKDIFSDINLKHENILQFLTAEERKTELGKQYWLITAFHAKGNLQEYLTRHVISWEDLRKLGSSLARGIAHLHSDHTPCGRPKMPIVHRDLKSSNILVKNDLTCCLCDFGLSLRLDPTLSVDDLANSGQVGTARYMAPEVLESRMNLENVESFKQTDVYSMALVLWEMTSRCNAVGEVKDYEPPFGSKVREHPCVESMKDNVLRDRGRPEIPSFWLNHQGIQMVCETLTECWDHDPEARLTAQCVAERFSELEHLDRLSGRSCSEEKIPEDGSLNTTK

[15] = molecular target: Mitogen-activated protein kinase 8 (Mus musculus) (UniProt Q91Y86); experiment: Inhibition of recombinant mouse N-terminal GST-tagged JNK1 expressed in baculovirus infected Sf9 cells assessed as change in enzyme activity at 1 uM in presence of 1 uM ATP relative to control; set-up: scale not given: the % may be the effect or the level left
Chain of Mitogen-activated protein kinase 8 (Mus musculus) (Q91Y86 whole entry): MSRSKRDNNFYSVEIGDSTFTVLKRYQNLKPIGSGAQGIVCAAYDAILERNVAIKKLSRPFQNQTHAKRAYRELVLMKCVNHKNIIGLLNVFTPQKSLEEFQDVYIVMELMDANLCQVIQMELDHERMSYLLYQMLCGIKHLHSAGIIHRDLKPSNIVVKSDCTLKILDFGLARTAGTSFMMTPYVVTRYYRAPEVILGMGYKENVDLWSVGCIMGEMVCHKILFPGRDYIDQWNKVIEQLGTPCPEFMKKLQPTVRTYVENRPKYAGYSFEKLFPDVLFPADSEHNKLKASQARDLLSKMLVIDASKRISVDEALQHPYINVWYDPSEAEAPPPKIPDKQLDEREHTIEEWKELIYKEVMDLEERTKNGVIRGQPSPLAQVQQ

[16] = molecular target: Serine/threonine-protein kinase 4 (Homo sapiens) (UniProt Q13043); experiment: Inhibition of recombinant human full length N-terminal GST-tagged MST1 expressed in baculovirus infected Sf9 cells assessed as change in enzyme activity at 1 uM in presence of 1 uM ATP relative to control; set-up: scale not given: the % may be the effect or the level left
Chain of Serine/threonine-protein kinase 4 (Homo sapiens) (Q13043 whole entry, canonical isoform): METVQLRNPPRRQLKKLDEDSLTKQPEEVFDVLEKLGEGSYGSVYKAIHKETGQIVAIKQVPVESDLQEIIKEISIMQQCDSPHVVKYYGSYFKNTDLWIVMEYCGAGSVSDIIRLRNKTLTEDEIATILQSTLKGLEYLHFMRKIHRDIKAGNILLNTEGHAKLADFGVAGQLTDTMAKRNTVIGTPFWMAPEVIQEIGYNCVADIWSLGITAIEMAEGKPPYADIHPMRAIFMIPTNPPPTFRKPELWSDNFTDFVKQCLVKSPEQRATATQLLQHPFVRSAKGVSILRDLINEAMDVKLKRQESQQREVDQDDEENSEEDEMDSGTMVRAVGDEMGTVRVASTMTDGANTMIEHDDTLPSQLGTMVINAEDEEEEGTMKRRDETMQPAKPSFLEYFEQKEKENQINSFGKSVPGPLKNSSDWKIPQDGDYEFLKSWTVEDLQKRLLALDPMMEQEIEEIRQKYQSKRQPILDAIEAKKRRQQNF

[17] = molecular target: Casein kinase I isoform alpha (Homo sapiens) (UniProt P48729); experiment: Inhibition of recombinant human full length N-terminal GST-tagged CK1alpha1 expressed in baculovirus infected Sf9 cells assessed as change in enzyme activity at 1 uM in presence of 1 uM ATP relative to control; set-up: scale not given: the % may be the effect or the level left
Chain of Casein kinase I isoform alpha (Homo sapiens) (P48729 2-337 limits assumed): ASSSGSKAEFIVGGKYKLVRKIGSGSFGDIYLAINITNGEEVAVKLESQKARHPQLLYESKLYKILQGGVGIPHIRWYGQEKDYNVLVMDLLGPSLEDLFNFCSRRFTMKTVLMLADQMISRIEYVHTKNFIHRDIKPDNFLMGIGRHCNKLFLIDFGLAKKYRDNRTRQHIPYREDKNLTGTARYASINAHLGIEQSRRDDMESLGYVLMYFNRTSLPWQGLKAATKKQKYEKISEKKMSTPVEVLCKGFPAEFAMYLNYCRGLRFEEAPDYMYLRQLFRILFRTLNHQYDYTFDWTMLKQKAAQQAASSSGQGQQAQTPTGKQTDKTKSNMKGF

[18] = molecular target: Platelet-derived growth factor receptor beta (Homo sapiens) (UniProt P09619); experiment: Inhibition of recombinant human full length N-terminal GST-tagged PDGFRbeta (unknown origin) expressed in baculovirus infected Sf9 cells assessed as change in enzyme activity at 1 uM in presence of 1 uM ATP relative to control; set-up: scale not given: the % may be the effect or the level left
[19] = molecular target: Mitogen-activated protein kinase kinase kinase 1 (Homo sapiens) (UniProt Q13233); experiment: Inhibition of recombinant human N-terminal GST-tagged MEKK1 ([…] residues) expressed in baculovirus infected Sf9 cells assessed as change in enzyme activity at 1 uM in presence of 2 uM ATP relative to control; set-up: scale not given: the % may be the effect or the level left
[20] = molecular target: Fibroblast growth factor receptor 4 (Homo sapiens) (UniProt P22455); experiment: Inhibition of recombinant human N-terminal GST-tagged FGFR4 (460 to end) residues expressed in baculovirus infected Sf9 cells assessed as change in enzyme activity at 1 uM in presence of 1 uM ATP relative to control; set-up: scale not given: the % may be the effect or the level left
[21] = molecular target: Dual specificity mitogen-activated protein kinase kinase 1 (Homo sapiens) (UniProt Q02750); experiment: Inhibition of recombinant full length N-terminal GST-tagged MEK1 (unknown origin) assessed as change in enzyme activity at 1 uM in presence of 1 uM ATP relative to control; set-up: scale not given: the % may be the effect or the level left
[22] = molecular target: Serine/threonine-protein kinase pim-2 (Homo sapiens) (UniProt Q9P1W9); experiment: Inhibition of recombinant human full length N-terminal GST-tagged PIM2 expressed in baculovirus infected Sf9 cells assessed as change in enzyme activity at 1 uM in presence of 1 uM ATP relative to control; set-up: scale not given: the % may be the effect or the level left
Chain of Serine/threonine-protein kinase pim-2 (Homo sapiens) (Q9P1W9 whole entry, looked up): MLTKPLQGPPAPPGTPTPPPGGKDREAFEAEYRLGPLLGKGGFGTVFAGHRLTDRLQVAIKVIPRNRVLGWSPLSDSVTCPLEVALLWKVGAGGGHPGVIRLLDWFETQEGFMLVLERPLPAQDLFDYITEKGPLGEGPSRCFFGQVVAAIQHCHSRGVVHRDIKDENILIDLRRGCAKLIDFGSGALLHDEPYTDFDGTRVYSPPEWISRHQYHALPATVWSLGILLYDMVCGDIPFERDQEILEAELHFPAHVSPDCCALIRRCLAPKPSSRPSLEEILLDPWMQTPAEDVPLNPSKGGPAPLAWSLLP

[23] = molecular target: Protein kinase C (PKC) (Homo sapiens) (UniProt O94806+P41743+P17252+P05129+Q05655+P05771+Q05513+Q02156+P24723+Q15139+Q04759); experiment: Inhibition of recombinant human full length N-terminal GST-tagged PKCalpha expressed in baculovirus infected Sf9 cells assessed as change in enzyme activity at 1 uM in presence of 1 uM ATP relative to control; set-up: scale not given: the % may be the effect or the level left
[24] = molecular target: Tyrosine-protein kinase ABL1 (Homo sapiens) (UniProt P00519); experiment: Inhibition of recombinant human N-terminal GST-tagged ABL1 (27 to end residues) expressed in baculovirus infected Sf9 cells assessed as change in enzyme activity at 1 uM in presence of 1 uM ATP relative to control; set-up: scale not given: the % may be the effect or the level left
[25] = molecular target: Mast/stem cell growth factor receptor Kit (Homo sapiens) (UniProt P10721); experiment: Inhibition of recombinant human N-terminal GST-tagged c-KIT (544 to end residues) expressed in baculovirus infected Sf9 cells assessed as change in enzyme activity at 1 uM in presence of 2 uM ATP relative to control; set-up: scale not given: the % may be the effect or the level left
[26] = molecular target: Ephrin type-A receptor 3 (Homo sapiens) (UniProt P29320); experiment: Inhibition of recombinant human N-terminal GST-tagged EPHA3 (571 to end residues) expressed in baculovirus infected Sf9 cells assessed as change in enzyme activity at 1 uM in presence of 2 uM ATP relative to control; set-up: scale not given: the % may be the effect or the level left
[27] = molecular target: STE20-like serine/threonine-protein kinase (Homo sapiens) (UniProt Q9H2G2); experiment: Inhibition of recombinant human full length N-terminal GST-tagged SLK expressed in baculovirus infected Sf9 cells assessed as change in enzyme activity at 1 uM in presence of 2 uM ATP relative to control; set-up: scale not given: the % may be the effect or the level left
Chain of STE20-like serine/threonine-protein kinase (Homo sapiens) (Q9H2G2 whole entry, looked up): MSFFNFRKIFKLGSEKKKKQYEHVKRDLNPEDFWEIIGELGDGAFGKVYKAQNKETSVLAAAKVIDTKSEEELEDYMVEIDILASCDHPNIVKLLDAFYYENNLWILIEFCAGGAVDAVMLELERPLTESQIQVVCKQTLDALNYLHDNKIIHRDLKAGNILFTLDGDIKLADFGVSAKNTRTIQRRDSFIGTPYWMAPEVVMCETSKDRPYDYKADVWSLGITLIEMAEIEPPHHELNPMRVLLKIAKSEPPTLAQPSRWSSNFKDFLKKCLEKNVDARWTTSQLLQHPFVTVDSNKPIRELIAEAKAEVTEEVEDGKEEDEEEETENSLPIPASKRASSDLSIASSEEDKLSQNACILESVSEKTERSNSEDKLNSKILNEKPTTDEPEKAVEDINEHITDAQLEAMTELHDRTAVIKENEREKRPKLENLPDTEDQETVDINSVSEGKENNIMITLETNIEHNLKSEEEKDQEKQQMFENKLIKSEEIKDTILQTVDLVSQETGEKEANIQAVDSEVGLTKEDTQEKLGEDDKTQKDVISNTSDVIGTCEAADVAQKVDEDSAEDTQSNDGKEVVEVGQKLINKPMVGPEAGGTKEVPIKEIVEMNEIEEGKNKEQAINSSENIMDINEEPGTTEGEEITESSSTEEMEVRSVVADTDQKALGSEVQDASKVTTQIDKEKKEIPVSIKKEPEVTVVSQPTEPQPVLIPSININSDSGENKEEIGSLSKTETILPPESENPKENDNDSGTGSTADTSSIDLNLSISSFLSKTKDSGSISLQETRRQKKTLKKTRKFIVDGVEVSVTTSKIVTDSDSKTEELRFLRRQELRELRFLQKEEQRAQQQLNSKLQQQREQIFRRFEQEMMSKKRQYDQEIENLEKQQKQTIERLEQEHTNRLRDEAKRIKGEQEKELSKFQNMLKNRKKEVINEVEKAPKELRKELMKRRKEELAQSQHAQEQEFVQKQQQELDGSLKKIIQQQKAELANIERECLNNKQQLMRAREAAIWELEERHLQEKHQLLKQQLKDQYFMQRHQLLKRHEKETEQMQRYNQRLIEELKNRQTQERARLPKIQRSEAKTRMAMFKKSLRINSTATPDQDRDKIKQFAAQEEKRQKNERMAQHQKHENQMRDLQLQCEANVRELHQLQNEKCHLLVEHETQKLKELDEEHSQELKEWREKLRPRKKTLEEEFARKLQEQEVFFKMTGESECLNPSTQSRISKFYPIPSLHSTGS

solubility thermodynamic [1] [µM] | solubility thermodynamic [2] [µM] | IC50 [3] [nM] | IC50 [4] [nM] | IC50 [5] [nM] | IC50 [6] [nM] | half-life [7] [h] | bioavailability [8] [%] | Activity [12] [%] | Activity [13] [%] | Activity [14] [%] | Activity [15] [%] | Activity [16] [%] | Activity [17] [%] | Activity [18] [%] | Activity [19] [%] | Activity [20] [%] | Compound | Activity [9] [%] | Activity [10] [%] | Activity [11] | also measured
> 2000 | 15 (≈ 9.7 µg/mL) | > 10000 | 1550 | 83.5 | 159 | 5.6 | 51 | -3 | 1 | 2 | 1 | -3 | -1 | 2 | 2 | 0 | CCN1CCN(Cc2ccc(-c3cc4c(-c5cccc(N6CCOc7cc(C8CC8)cc(F)c7C6=O)c5CO)ccnc4[nH]3)nc2)CC1 | 69 | 81 | Dose-dependent effect | Activity [21]: -14%; Activity [22]: 0%; Activity [23]: -1%; Activity [24]: -41%; Activity [25]: -1%; Activity [26]: -2%; Activity [27]: -5%
> 2000 | 31 (≈ 18 µg/mL) | > 10000 | 4680 | 261 | 364 | 1.1 | 49 | 2 | 3 | 3 | -4 | 5 | 0 | -3 | 3 | 1 | O=C1c2c(F)cc(C3CC3)cc2OCCN1c1cccc(-c2ccnc3[nH]c(C4=CCN(C5COC5)CC4)cc23)c1CO | 44 | 56 | Dose-dependent effect | Activity [21]: -20%; Activity [22]: 1%; Activity [23]: -1%; Activity [24]: -16%; Activity [25]: 0%; Activity [26]: -3%; Activity [27]: -9%
